This is an account of results in US11253497B2, “Use of derivatives of polyunsaturated fatty acids as medicaments” (Lipopharma Therapeutics, S.L., priority 2009, dated 2022).

Series [1] has as its system apolipoprotein AI (apoA-I). Description: Levels of apoA-I in SHR rats (RT-PCR). Format: in vivo, rat. The settings on record: 200 mg/kg day p.o., 30 days, before treatment 100%. A digest of the protocol: (§1)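 SHR rats dosed orally at 200 mg/kg day for 30 days against water vehicle. At study end, blood pressure taken non-invasively by tail cuff and apoA-I assessed as gene expression by RT-PCR.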

Series [2] has as its system α-synuclein. Description: Expression of α-synuclein in neuronal cultures (cells P19). The class given is cell-based. To be noted: untreated cells 100%.
Series [3] has as its system HepG2 cells. As to the kind of experiment: Liver cancer (HepG2 cells). The settings on record: Homo sapiens, HepG2; 72 hours. The class given is cell-based. The method, then:
These charts show the antitumor efficacy of the compounds of this invention against the growth of breast cancer cells, brain (glioma), and lung cancer. […] The other experimental conditions are identical to those described in the preceding paragraph.
(§2) Overall, it may be seen that the series of compounds A and B are the best, so the effectiveness of these series against the development of leukaemia and liver cancer (Tables 9 and 10) was tested.

Series [4] has as its system P19 cells. Description: NMDA-induced neuronal death in P19 cells. The class given is cell-based. The settings on record: NMDA alone 100% death, control without NMDA 0%; negative values = proliferation.
Series [5] relates to Spontaneously Hypertensive Rats (SHR). As to the kind of experiment: Blood pressure of SHR rats (cuff-tail method). The settings on record: 200 mg/kg day p.o., 30 days, before treatment 214 mmHg. Format: in vivo, rat. A digest of the protocol:
as §1

In series [6] the test system is brain cancer cell (glioma) U118. Description: Brain cancer (glioma) U118 cell growth. Format: cell-based. The settings on record: 72 hours of incubation. A digest of the protocol:
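Human cells in RPMI 1640 with 10% FBS at 37 °C, 5% CO2, exposed to D-PUFAs or PUFAs, then counted. glioma U118 cells run under the same conditions; values are means of three independent experiments.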

Series [7] concerns heterotrimeric Gi1 protein. As to the kind of experiment: Binding of heterotrimeric Gi1 protein to model membranes (centrifugation, immunoblotting). The settings on record: phosphatidylcholine:phosphatidylethanolamine (6:4) 2 mM phospholipid, 0.1 μM D-PUFA; control 100 ± 5; in % (unit assumed). An excerpt:
The net result is a regulation of cell signalling leading to the reversal of various pathological processes, as shown later. […] The Control is a sample of model membranes in the absence of fatty acids.
(In western blotting, separated proteins are transferred to a membrane and probed.)

In series [8] the test system is lung cancer cells A549. Description: Growth of lung cancer cells A549 (IC50). Format: cell-based, human. The settings on record: 72 hours of incubation. A digest of the protocol: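 Human A549 lung cancer cells in RPMI 1640 with 10% FBS at 37 °C, 5% CO2, exposed to D-PUFAs or PUFAs, then counted. values are means of three independent experiments.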
For series [9], the system named is TNF-α. As to the kind of experiment: Production of TNF-α in serum of LPS-injected C57BL6/J mice. Format: in vivo. The settings on record: LPS 20 μg i.p. (100%), 200 mg/kg p.o. In short, it runs like this: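 C57BL6/J mice given intraperitoneal LPS (20 μg) to induce inflammation, then dosed orally with derivatives at 200 mg/kg. Serum TNF-α measured.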
Series [10] concerns Jurkat cells. As to the kind of experiment: Human leukaemia (Jurkat cells). Format: cell-based. To be noted: 72 hours. The method, then:
as §2

Series [11] can be described thus: Lamellar-to-hexagonal (HII) transition temperature in DEPE model membranes by Differential Scanning Calorimetry. The class given is physicochemical. The method, then:
The transition temperature was determined by Differential Scanning Calorimetry. The proportion DEPE:D-PUFA was 10:1 (mol:mol) in all cases. Lamellar-to-hexagonal transition is an important parameter that reflects relevant signalling properties of cell membranes. […] When this occurs, certain peripheral membrane proteins (such as G proteins, protein kinase C or Ras protein) can more easily bind to the membrane, while others have a poor interaction (e.g., the Gα-protein), so changes in the HII transition temperature are important in regulating cellular functions related to health and human therapy (Escriba et al., 1995, Vogler et al., 2004; Escriba, 2006).
Control values correspond to model membranes in the absence of fatty acids. The reduction in HII transition temperature obtained by using the D-PUFA of the invention indicates an increased induction of membrane discontinuities, generating anchoring sites in the membrane for peripheral proteins and leads to better regulation of cell signalling and, therefore, greater effectiveness in the control of certain diseases.

Series [12] deals with 3T3 cells. As to the kind of experiment: Percentage of total PUFAs in membranes of 3T3 cells treated with fatty acids (gas chromatography). Format: cell-based. The settings on record: 100 μM, 48 hours, mean ± SEM of four measures, control 32.4 ± 2.1. An excerpt: To perform these experiments, membranes were extracted and total fatty acids were obtained by hydrolysis in basic medium. Methanolic bases of these fatty acids were quantified by gas chromatography. The data shown are averages of four independent measures of PUFA's mass divided by the total fatty acids and expressed as a percentage. It is also shown is standard error of the mean.
The control corresponds to a culture without the presence of added natural or synthetic fatty acids. Cells in their natural form present PUFAs in their membranes, but the presence in the medium of the D-PUFA molecules of the invention increases these levels of PUFAs in the cell membrane.

The test system of series [13] is breast cancer cells MDA-MB-231. As to the kind of experiment: Growth of breast cancer cells MDA-MB-231. The class given is cell-based. To be noted: 72 hours of incubation. A digest of the protocol: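 Human cancer cells in RPMI 1640 with 10% FBS at 37 °C, 5% CO2, exposed to D-PUFAs or PUFAs, then counted. Breast MDA-MB-231 cells run under the same conditions; values are means of three independent experiments.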

In series [14] the test system is COX-2. As to the kind of experiment: Expression of COX-2 in LPS-stimulated monocytes in culture. The class given is cell-based, human. The settings on record: positive control with LPS 100%. A digest of the protocol:
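Cultured monocytes stimulated with LPS; COX-2 protein level expressed as % inhibition relative to the LPS-only positive control (100%).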

The nature of series [15]: Serum cholesterol, triglycerides and glucose in SHR rats (colorimetric). Format: in vivo, rat. The settings on record: 200 mg/kg daily p.o., 28 days, untreated rats 100%. A digest of the protocol:
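SHR rats dosed p.o. at 200 mg/kg daily for 28 days; serum cholesterol, triglycerides and glucose measured colorimetrically. Values given as percent of untreated control rats, set at 100%.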

Series [16] concerns B6 healthy mice. As to the kind of experiment: Radial maze in control animals (B6 healthy mice). Format: in vivo. The settings on record: 20 mg/kg daily po, 3 months. The method, then: To test the efficacy of the compounds of the present invention to induce neuroregeneration or inhibit neurodegeneration, an animal model of Alzheimer's disease was used. In this model mice develop neurodegeneration because they express a series of mutant proteins that lead to brain damage (Alzh mice). B6 mice were used as healthy animal controls. Both groups of animals were treated for a period of 3 months with vehicle (water) or with various D-PUFA (20 mg/kg, daily po) since they were an age of 3 months. To determine whether cognitive improvement occurred after treatment, animal behaviour was monitored in the radial maze. The animals are kept on restricted diet to have appetite. In a symmetrical 8-arm radial maze, visual marks were placed to facilitate the orientation of the animal and food (15 mg tablet) was put in four of the arms. The time each animal took to complete the exercise, and the number of errors, were measured using a camera attached to a computer system. In this sense, Alzheimer animals have values about 50% higher than healthy animals, both by the time it takes to perform the exercise and by the number of errors made (FIG. 4B). […] In this regard, the effectiveness of the compound 183B1, 205A1, 205B1, 226A1, 226 V1 was also tested, showing improvements in animals with Alzheimer's disease (times of 98, 92, 93, 86 and 89 seconds, respectively). On the other hand, it is also interesting that these same compounds (183B1, 205A1, 205B1, 226A1, 226B1 and 226V1) also produced reductions in the times taken to complete the experiment in control animals (B6 healthy mice) of 8s, 11s, 12s, 18s, 16s and 14s, respectively. Therefore, it may be concluded that these compounds have significant activity against neurodegeneration and in neuroregeneration.

Molecules are shown by their SMILES.

In the case of `CCCCCC=CCC=CCC=CCC=CCCC(O)C(=O)O` (centres unmarked) [204A1, 2-hydroxy-5,8,11,14-eicosatetraenoic acid], the “Levels of apoA-I” value in series [1] is 131%. The “Expression of α-synuclein” value in series [2] came to 41%. Moreover, the half-maximal inhibitory concentration (IC50) – broadly, the concentration at which inhibition is half-maximal – in [3] turned out to be 192 µM; in [6], 197 µM; in series [8] (Homo sapiens, A549), 243 µM; in [10] (Homo sapiens, Jurkat) it was 62 µM; in series [13] (Homo sapiens, MDA-MB-231), 381 µM. Besides, the “Neuronal death (P19 cells) after treatment with NMDA” value in [4] is given as −70%. In series [5], the Blood pressure amounted to 205 mm Hg. Further, the G protein binding in series [7] stood at 385 ± 22. Moreover, the “Production of TNF-α in serum” value in series [9] amounted to 24%. For the same compound, the Transition temperature (lamellar to HII) in [11] (DEPE (4 mM), 200 μM compound, series A, control 64.5) was 49.3 °C. Further, the “Percentage of total PUFA” value in [12] came out at 45.5 ± 2.9%. In series [14], the “COX-2 protein levels (expression), percentages of inhibition compared to positive control” value stood at 17%. For the same compound, the “Cholesterol in serum (top number)” value in series [15] is reported as 72%. For the same compound, in series [15], the “Glucose in serum (bottom number)” value stood at 85%. In addition, the “Triglycerides in serum (central number)” value in [15] amounted to 77%.

With `CC/C=C\C/C=C\C/C=C\C/C=C\C/C=C\C/C=C\CC(O)C(=O)[O-].[Na+]` (centres unmarked) [226B1], the “Levels of apoA-I” value in [1] turned out to be 333%. The “Expression of α-synuclein” value in series [2] is 31%. In [16], the “Reduction in the time taken to complete the experiment” value is recorded as 16 s. Also, the “Neuronal death (P19 cells) after treatment with NMDA” value in [4] was −222%. In series [5], the Blood pressure came out at 186 mm Hg. Moreover, the IC50 was 196 µM in series [6], 198 µM in [8], 175 µM in series [10] and 195 µM in [13]. Besides, the “Production of TNF-α in serum” value in series [9] amounted to 83%. The same compound returned a Temperature of lamellar-to-hexagonal transition in series [11] (DEPE membranes, DEPE:D-PUFA 10:1 (mol:mol)) of 45.1 °C. The “COX-2 protein levels (expression), percentages of inhibition compared to positive control” value in [14] is 37%. Moreover, the “Cholesterol in serum (top number)” value in series [15] worked out at 59%. In addition, in series [15], the “Glucose in serum (bottom number)” value is reported as 81%. Besides, in series [15], the “Triglycerides in serum (central number)” value turned out to be 62%.
